Source: patent US20050239755A1, “External preparation for inhibiting keloid formation” (priority 2002, published 2005)

How the values were obtained:
[1] = tested on: human fibroblast derived from keloid; assay: Test of inhibition of collagen gel shrinking (human fibroblast derived from keloid); assay type: cell-based; details: for Shrinking rate: after 24 hours
Protocol: (§1) Test of Inhibition of Collagen Gel Shrinking. A collagen solution (1.5 mg/mL) (1 mL) and a suspension of human normal fibroblast or human fibroblast derived from keloid (1×10^5 cells) (1 mL) were added to a Petri dish (diameter; 35 mm) and mixed. The mixture was warmed for about 10 minutes in an incubator (37° C., 5% CO2) to prepare collagen gel. Further broth (1 mL) was added over thereon and was left for about 3 hours in the incubator (37° C., 5% CO2). The collagen gel was released from the Petri dish, and thereto was added a solution containing acetylsalicylic acid (its final concentration was respectively 0, 0.05, 0.5, 5, and 50 μM). The suspension was cultured in the incubator (37° C., 5% CO2) and after 24 hours the shrinking rate was evaluated.

[2] = tested on: human normal fibroblast; assay: Test of inhibition of collagen gel shrinking (human normal fibroblast); assay type: cell-based; details: for Shrinking rate of collagen: after 24 hours
Protocol: as §1

CC(=O)Oc1ccccc1C(=O)O [Acetylsalicylic acid]
shrinking of collagen (in words) ([1]; Table 10): inhibited | Shrinking rate ([1]; acetylsalicylic acid 0.05 μM): 21% | Shrinking rate ([1]; acetylsalicylic acid 0.5 μM): 19% | Shrinking rate ([1]; acetylsalicylic acid 5 μM): 24% | Shrinking rate ([1]; acetylsalicylic acid 50 μM): 20% | shrinking of collagen (in words) ([2]; Table 9): inhibited | Shrinking rate of collagen ([2]; acetylsalicylic acid 0.05 μM): 23% | Shrinking rate of collagen ([2]; acetylsalicylic acid 0.5 μM): 12% | Shrinking rate of collagen ([2]; acetylsalicylic acid 5 μM): 10% | Shrinking rate of collagen ([2]; acetylsalicylic acid 50 μM): 14%
